Values joined by “and” are separate entries in the source; they are usually repeats but may differ in a detail not shown here. Identical values can stand only once.
What was measured:
[1] = test system: PP2A; assay: PP2A activity in mouse brains after IP dosing (PP2A immunoprecipitation phosphatase assay, malachite green); assay type: in vivo, Balb/c mice; parameters: Average Conc. (group of 3 mice): unit not given here; conditions: brain
Description: (§1) Coomassie (Bradford) Protein Assay Kit (Pierce); PP2A Immunoprecipitation Phosphatase Assay Kit (Millipore); Lysate preparation for low endogenous phosphate: 20 mM imidazole-HCl, 2 mM EDTA, 2 mM EGTA, 1 mM PMSF, 1 mM benzamidine, 10 ug/ml each of aprotinin, leupeptin, antipain, soybean trypsin inhibitor; Normal Mouse IgG (Millipore); Okadaic acid (OA) (Tocris); DMSO (Sigma).
(§2) • Species: Mus Musculus • Strain: Balb/c mice • Age: 6-8 weeks • Sex: female • Body weight: 18-22 g • Vendor: Shanghai Laboratory Animal Center, Shanghai, China; • Number of animals: 66 Balb/c mice plus spare
(§3) The mice were kept in laminar flow rooms at constant temperature and humidity with 4 animals in each cage. • Temperature: 20-25 • Humidity: 40-70%. • Light cycle: 12 hours light and 12 hours dark. • Cages: Made of polycarbonate. The size is 29 cm×17.5 cm×12 cm (L×w×H). The bedding material is wood debris, which is changed once per week. • Diet: Animals had free access to irradiation sterilized dry granule food during the entire study period. • Water: Animals had free access to sterile drinking water. • Cage identification: the identification labels for each cage contained the following information: number of animals, sex, strain, date arrival, treatment, study number, group number, and the starting date of the treatment. • Animal identification: Animals were marked by ear punch.
(§4) All the procedures related to animal handling, care, and the treatment in this study were performed according to guidelines approved by the Institutional Animal Care and Use Committee (IACUC) of WuXi AppTec (Shanghai), following the guidance of the Association for Assessment and Accreditation of Laboratory Animal Care (AAALAC). At the time of routine monitoring, the animals were checked and recorded for any effects of tumor growth on normal behavior such as mobility, food and water consumption (by looking only), body weight gain/loss, eye/hair matting and any other abnormal effect.
(§5) 1. Proper amount of the compounds were weighed. 2. The compounds were dissolved in 4% sterile sodium bicarbonate. 3. All of the compounds should be well dissolved and clear. 4. The compounds should be kept cold once in solution and injected within an hour. 5. The mice were administered intraperitoneally according to their body weights, 20 g mouse was treated with 0.2 ml compound solution. 6. Mice were treated with vehicle and compounds according to Table 1. 7. 3 hours after the dose, 3 mice from each group were euthanized by
(§6) CO2 exposure, and the brains and left lobe of livers were taken and snap-frozen in liquid nitrogen immediately. 6 hours after the dose, the other 3 mice from each group were euthanized by CO2 exposure, and the brains and left lobe of livers were taken and snap-frozen in liquid nitrogen immediately.
(§7) Preparation of malachite green phosphate detection solution Added […] of Solution B to each 1 mL of Solution A, kept at room temperature during use. […] of mixed solution AB is used per assay well.
(§8) Diluted 125 mL Phosphate Standard (Solution C) with 1125 mL of distilled water to make 0.1 mM working solution. The solution was used to prepare a phosphate standard curve as described in the table below.
(§9) 1. 25 μL of each phosphate standards was transferred to wells of microliter plate. 2. Added 100 μL of Malachite Green Solution AB. Mixed carefully without creating bubbles. 3. Cultured for 15 minutes at RT. 4. Measured absorbance at a wavelength between 650 nm in a microliter plate reader.
(§10) 1. Dissolved 1 mg Threonine Phosphopeptide (Catalog #12-219) in 1.10 mL of distilled water to prepare a 1 mM solution. 2. Aliquot peptide solution and stored at ˜20° C. as necessary.
(§11) 1. Mouse brain or liver was homogenized using lysis buffer (25 g/L), centrifuged at 12000 g for 10 minutes at […], and the supernatants were collected. 2. The protein was quantitated, and 240 μg of mouse brain or liver lysate was taken to assay phosphatase activity. 3. […]

[2] = test system: PP2A; assay: PP2A activity in mouse livers after IP dosing (PP2A immunoprecipitation phosphatase assay, malachite green); assay type: in vivo, Balb/c mice; conditions: liver
Description: as §1, §2, §3, §4, §5, §6, §7, §8, §9, §10, §11

[3] = high dose IP (mpk: 100 1.5, 113 2.2, 151 1.6, 153 1.7, 157 2.0), 3 h
[4] = high dose IP (mpk: 100 1.5, 113 2.2, 151 1.6, 153 1.7, 157 2.0), 6 h
[5] = low dose IP (mpk: 100 0.75, 113 1.1, 151 0.8, 153 0.85, 157 1.0), 3 h
[6] = low dose IP (mpk: 100 0.75, 113 1.1, 151 0.8, 153 0.85, 157 1.0), 6 h
[7] = high dose IP (mpk: 100 1.5, 113 2.2, 151 1.6, 157 2.0), 3 h
[8] = high dose IP (mpk: 100 1.5, 113 2.2, 151 1.6, 157 2.0), 6 h

## COC(=O)C1C2CCC(O2)C1C(=O)N1CCN(C)CC1 (centres unmarked) [Compound 151]
[1]; [3]
  Average Conc. (group of 3 mice): 2166.08
  Average Relative Activity (group, vehicle = 100): 87.89
  Conc. (phosphate, single reading, per mouse): 3168.39 and 2285.85 and 2334.84 and 1781.17 and 1662.47 and 1991.94
  Mean Conc. (per mouse): 2310.34 and 1721.82 and 2580.16
  Mean Conc. less IgG blank (per mouse): 2272.32 and 1683.79 and 2542.14
  Relative Conc. (per mouse, to vehicle): 1.05 and 0.78 and 1.17
  Relative PP2A Activity (per mouse, vehicle = 100): 92.20 and 68.32 and 103.14
[1]; [4]
  Average Conc. (group of 3 mice): 2082.71
  Average Relative Activity (group, vehicle = 100): 74.99
  Conc. (phosphate, single reading, per mouse): 1999.47 and 1945.40 and 1958.41 and 2142.56 and 2296.42 and 2382.19
  Mean Conc. (per mouse): 1972.43 and 2050.48 and 2339.31
  Mean Conc. less IgG blank (per mouse): 1934.40 and 2012.45 and 2301.28
  Relative Conc. (per mouse, to vehicle): 0.79 and 0.82 and 0.94
  Relative PP2A Activity (per mouse, vehicle = 100): 69.65 and 72.46 and 82.86
[1]; [5]
  Average Conc. (group of 3 mice): 1599.57
  Average Relative Activity (group, vehicle = 100): 64.90
  Conc. (phosphate, single reading, per mouse): 1332.79 and 1495.39 and 2603.34 and 1925.68 and 1273.84 and 1194.57
  Mean Conc. (per mouse): 1414.09 and 2264.51 and 1234.21
  Mean Conc. less IgG blank (per mouse): 1376.06 and 2226.48 and 1196.18
  Relative Conc. (per mouse, to vehicle): 0.63 and 1.03 and 0.55
  Relative PP2A Activity (per mouse, vehicle = 100): 55.83 and 90.34 and 48.53
[1]; [6]
  Average Conc. (group of 3 mice): 1662.31
  Average Relative Activity (group, vehicle = 100): 59.85
  Conc. (phosphate, single reading, per mouse): 1514.30 and 1280.55 and 1980.77 and 1880.56 and 1846.62 and 1699.26
  Mean Conc. (per mouse): 1397.42 and 1930.66 and 1772.94
  Mean Conc. less IgG blank (per mouse): 1359.40 and 1892.63 and 1734.91
  Relative Conc. (per mouse, to vehicle): 0.56 and 0.77 and 0.71
  Relative PP2A Activity (per mouse, vehicle = 100): 48.95 and 68.15 and 62.47
[2]; [7]
  Average Conc. (group of 3 mice): 472.47
  Average Relative Activity (group, vehicle = 100): 112.5
  Conc. (phosphate, single reading, per mouse): 387.96 and 418.01 and 367.5 and 404.51 and 757.23 and 772.47
  Mean Conc. (per mouse): 402.99 and 386.01 and 764.85
  Mean Conc. less IgG blank (per mouse): 357.51 and 340.53 and 719.38
  Relative Conc. (per mouse, to vehicle): 0.85 and 0.81 and 1.71
  Relative PP2A Activity (per mouse, vehicle = 100): 85.13 and 81.08 and 171.29
[2]; [8]
  Average Conc. (group of 3 mice): 241.1
  Average Relative Activity (group, vehicle = 100): 54.24
  Conc. (phosphate, single reading, per mouse): 320.03 and 325.26 and 287.37 and 311.32 and 231.2 and 244.26
  Mean Conc. (per mouse): 322.65 and 299.35 and 237.73
  Mean Conc. less IgG blank (per mouse): 277.17 and 253.87 and 192.25
  Relative Conc. (per mouse, to vehicle): 0.62 and 0.57 and 0.43
  Relative PP2A Activity (per mouse, vehicle = 100): 62.36 and 57.11 and 43.25
[2]; [5]
  Average Conc. (group of 3 mice): 423.92
  Average Relative Activity (group, vehicle = 100): 100.94
  Conc. (phosphate, single reading, per mouse): 430.64 and 449.36 and 437.61 and 446.75 and 521.21 and 530.8
  Mean Conc. (per mouse): 440 and 442.18 and 526
  Mean Conc. less IgG blank (per mouse): 394.52 and 396.7 and 480.53
  Relative Conc. (per mouse, to vehicle): 0.94 (2×) and 1.14
  Relative PP2A Activity (per mouse, vehicle = 100): 93.94 and 94.46 and 114.42
[2]; [6]
  Average Conc. (group of 3 mice): 307.58
  Average Relative Activity (group, vehicle = 100): 69.2
  Conc. (phosphate, single reading, per mouse): 260.81 and 279.97 and 333.1 and 357.92 and 428.03 and 458.51
  Mean Conc. (per mouse): 270.39 and 345.51 and 443.27
  Mean Conc. less IgG blank (per mouse): 224.91 and 300.03 and 397.79
  Relative Conc. (per mouse, to vehicle): 0.51 and 0.67 and 0.89
  Relative PP2A Activity (per mouse, vehicle = 100): 50.6 and 67.5 and 89.49
